The values that follow come from publication PMC8183095, “Uncovering the chemistry of C–C bond formation in C-nucleoside biosynthesis: crystal structure of a C-glycoside synthase/PRPP complex” (Chemical Communications (Cambridge, England), 2020).

In assay [1] the target is T1, ForT (Streptomyces kaniharaensis, UniProt A0A5S9CYM0, G134P).
T1 construct: gene cof6
The assay is described as follows: biochemical.

Assay [2] has as its target T2, ForT (Streptomyces kaniharaensis, UniProt A0A5S9CYM0).
T2 sequence (A0A5S9CYM0 1-341): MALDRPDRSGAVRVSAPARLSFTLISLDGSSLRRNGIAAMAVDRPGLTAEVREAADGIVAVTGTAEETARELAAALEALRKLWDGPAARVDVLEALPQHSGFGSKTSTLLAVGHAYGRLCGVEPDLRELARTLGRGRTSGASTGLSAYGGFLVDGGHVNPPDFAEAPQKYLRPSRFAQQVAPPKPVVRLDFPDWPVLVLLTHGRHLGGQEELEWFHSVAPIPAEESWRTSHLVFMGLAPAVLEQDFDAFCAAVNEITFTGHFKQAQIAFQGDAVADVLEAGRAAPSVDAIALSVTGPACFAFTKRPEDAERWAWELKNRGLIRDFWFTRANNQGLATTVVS
The experiment in a line: biochemical. Also noted: gene cof6.

Assay [3] has as its target T2, ForT. The experiment in a line: LCMS product detection; membrane-inlet mass spectrometry of CO2 production. Type of assay: biochemical. Set-up: gene cof6; recombinant wild type, expressed in and purified from Escherichia coli; residues 11-171, 180-205, 209-341 (C-terminus) seen in the crystal; dimer in solution. The following applies: co-substrate PRPP; Mg2+ apparently needed.

For assay [4], the target named is ForT (wild type), C-glycoside synthase from Streptomyces kaniharaensis (Streptomyces kaniharaensis). The experiment in a line: SEC-MALS; gel filtration and multi-angle light scattering of ForT in solution. For orientation: Size exclusion chromatography separates by hydrodynamic size, large species first.

Some results are limits rather than exact numbers.

T1 sequence (A0A5S9CYM0 entry or part of it G134P): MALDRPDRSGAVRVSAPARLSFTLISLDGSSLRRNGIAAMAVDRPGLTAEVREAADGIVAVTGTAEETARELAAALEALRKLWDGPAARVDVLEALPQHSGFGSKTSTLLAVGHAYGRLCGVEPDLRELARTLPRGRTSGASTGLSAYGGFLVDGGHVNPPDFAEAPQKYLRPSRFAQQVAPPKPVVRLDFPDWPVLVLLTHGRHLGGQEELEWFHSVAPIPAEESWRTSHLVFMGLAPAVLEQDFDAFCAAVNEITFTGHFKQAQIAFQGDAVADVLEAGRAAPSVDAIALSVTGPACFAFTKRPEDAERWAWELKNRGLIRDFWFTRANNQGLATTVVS

The term Kd denotes the equilibrium constant for the complex coming apart. Higher therefore signals lower affinity. With `O=P(O)(O)OC[C@H]1O[C@H](OP(=O)(O)OP(=O)(O)O)[C@H](O)[C@@H]1O` [compound 4, PRPP], the results for the Kd in assay [1] and in assay [2] were above 200 µM and 4 µM, respectively. On to `Nc1c(C(=O)O)n[nH]c1C(=O)O` [compound 5, 4-amino-1H-pyrazole-3,5-dicarboxylate], for which the “LCMS product detection; membrane-inlet mass spectrometry of CO2 production” value in assay [3] is on record as “LCMS confirmed formation of the expected product when the enzyme was incubated with PRPP”.

As a reminder, the stoichiometry N is the number of molecules, sites or subunits per partner or assembly. Regarding “ForT (wild type), C-glycoside synthase from Streptomyces kaniharaensis (enzyme)”, the stoichiometry N in assay [4] was determined as 2.
